In ChEMBL document CHEMBL3882724 (2013) one finds inhibition, IC50 and half-life data, which are given here for six compounds.

The target in series [1] is T1, Steroid 17-alpha-hydroxylase/17,20 lyase (Homo sapiens, UniProt P05093).
T1 sequence (P05093 whole entry): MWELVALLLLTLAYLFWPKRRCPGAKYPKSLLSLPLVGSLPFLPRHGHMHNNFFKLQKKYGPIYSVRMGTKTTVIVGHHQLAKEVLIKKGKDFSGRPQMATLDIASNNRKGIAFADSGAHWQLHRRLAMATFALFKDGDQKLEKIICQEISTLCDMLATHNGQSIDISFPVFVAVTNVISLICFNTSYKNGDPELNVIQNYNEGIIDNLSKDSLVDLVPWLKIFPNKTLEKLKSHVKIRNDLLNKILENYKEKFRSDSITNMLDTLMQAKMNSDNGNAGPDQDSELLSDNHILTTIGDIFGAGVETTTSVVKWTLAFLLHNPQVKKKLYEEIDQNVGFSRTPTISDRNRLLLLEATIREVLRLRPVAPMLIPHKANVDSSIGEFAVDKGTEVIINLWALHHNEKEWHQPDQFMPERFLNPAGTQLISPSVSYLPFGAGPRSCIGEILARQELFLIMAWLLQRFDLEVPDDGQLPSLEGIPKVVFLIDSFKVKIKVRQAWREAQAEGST
Description: Inhibition of human C17,20-lyase in human testis microsomes at 10 nM using 17alpha-hydroxypregnenolone/[21-3H]-17alpha-hydroxypregnenolone as substrate after 30 mins by scintillation counting method relative to control. To be noted: 0.5 h.

Series [2] addresses T1, Steroid 17-alpha-hydroxylase/17,20 lyase. Description: Inhibition of CYP17 in human testicular microsomes using 17alpha-hydroxypregnenolone as substrate assessed as decrease in DHEA levels after 90 mins by ELISA. On the set-up: species or system Testis.
Series [3] can be described thus: Half life in human liver microsomes at 1 uM by LC-MS/MS analysis. Background: Liver microsomes are a subcellular fraction often used to study metabolism.
Series [4] in a line: Half life in rat liver microsomes at 1 uM by LC-MS/MS analysis.

Regarding `C[C@]12CCC(=O)OC[C@@H]1CC[C@@H]1[C@@H]2CC[C@]2(C)C(c3cccnc3)=CC[C@@H]12`, in series [1], the inhibition (usually the change of the read-out against control, counted positive when it falls) at 0.01 µM was at least 38%. Further, the IC50 – broadly, the concentration that gives 50% inhibition – in series [2] is at most 11 nM. The results for the half-life at 1 µM in series [3] and in series [4] were 1 to 50 min and 10 to 60 min, respectively.
`C[C@]12CC[C@H]3[C@@H](CCN4C(=O)C=CCC[C@]34C)[C@@H]1CC=C2c1cccnc1` yielded an inhibition at 0.01 µM in series [1] of at least 38%.
The compound `C[C@]12CC[C@H]3[C@@H](CCN4C(=O)CC=CC[C@]34C)[C@@H]1CC=C2c1cccnc1` displayed an inhibition at 0.01 µM in series [1] of at least 38%. Besides, the half-life at 1 µM in series [3] and in series [4] was 1 to 10 min in each case.
Turning to `CCOc1cncc(C2=CC[C@H]3[C@@H]4CC[C@H]5COC(=O)CC[C@]5(C)[C@H]4CC[C@]23C)c1`, the inhibition at 0.01 µM in series [1] lay within 3 to 38%.
For `COc1cncc(C2=CC[C@H]3[C@@H]4CC[C@H]5COC(=O)CC[C@]5(C)[C@H]4CC[C@]23C)c1`, the inhibition at 0.01 µM in series [1] is at least 38%.
`C[C@]12CCOC(=O)C[C@@H]1CC[C@@H]1[C@@H]2CC[C@]2(C)C(c3cccnc3)=CC[C@@H]12` came in with an inhibition at 0.01 µM in series [1] of at least 38%. Moreover, the IC50 in series [2] is at most 11 nM. The figures for the half-life at 1 µM in series [3] and in series [4] were 1 to 50 min and 10 to 60 min, respectively.
